Assay results reported in patent publication US20090285820A1, “Methods of Treating Degenerative Disorders With Rac 1B Inhibitor” (priority 2006, published 2009).

Key:
Format in all cases: cell-based
[1] = test system: rac1 mRNA in SH-SY5Y cells; assay: Effect of oxidative stress on rac1 levels, PCR of rac1; settings: 24 hours
Protocol: (§1) To test whether ROS production may affect the rac1/rac1b ratio SH-SY5Y cells were exposed to various ROS-inducing agents at the indicated concentrations for 24 hours and cell viability was determined using a LDH assay (Cytotox96, Promega).
(§2) SH-SY5Y cells were plated in 24 well plates (ATGC, France) at the initial density of 3*10^5 cells/well. After 24 hours, cells were treated with various ROS-inducing agents at the indicated concentrations. After 24 h incubation, a LDH assay was conducted to reveal cell viability and cells were processed for RNA extraction using Trizol.
(§3) To test the effect of ROS producing agents TBH and 6-OHDA on mRNA levels of rac1 and rac1b, SH-SY5Y cells were exposed to various ROS-inducing agents at the indicated concentrations for 24 hours and rac1 and rac1b were either coamplified using primers nm—006908_F1 and nm—006908_R1, or rac1b was specifically amplified in a nested PCR approach that sequentially used primers nm—006908_F1 and nm—006908_R1, then primers nm—006908_F2 and nm—006908_R1. GAPDH was amplified as control.

[2] = test system: rac1b mRNA in SH-SY5Y cells; assay: Induction of rac1b splicing by oxidative stress, nested PCR of rac1b; settings: 24 hours, subtoxic concentrations
Protocol: as §1, §2, §3

[3] = test system: rac1b mRNA in rat primary cortical cells; assay: Induction of rac1b splicing by Abeta, nested PCR of rac1b mRNA; settings: rat cortical cells exposed to Abeta for 24 hours; observed at 11.25 and 22.5 μM; two independent cultures
Protocol: Rat primary cortical cell cultures are sensitive to Abeta toxicity, the neurotoxicity of which involves different mechanisms such as calcium homeostasis dysregulation, accumulation of ROS, secondary excitotoxicity and caspase activation (Zhang et al, J Neurochem 1996, 67 (4) 1595-1606). Abeta peptide is dissolved in 100% HFIP (1,1,1,3,3,3-hexafluoro-2-propanol), then dryed out and resuspended in 100% DMSO and rediluted in DMEM/F12 without phenol red. The solution maturates by incubation at 37° C. during 72 h and Aβ oligomers are then added on 7 days cultures for 24 h. After 24 h incubation, cells were processed for RNA extraction using Trizol. A nested PCR approach was used for the amplification rac1b using the following primers: nm—006908_F1: […] (SEQ ID NO 9), nm—006908_R1: TGGCATTGAGTGCGAAGGC (SEQ ID NO 10), nm—006908_F2: AAAGACAAGCCGATTGCCG (SEQ ID NO 11). Rac1 was amplified following the first PCR of the protocol described below using primers nm—006908_F1 and nm—006908_R1. In these conditions, rac1b was not detected on gel due to its low quantity after single PCR amplification and was easily detected using primers nm—006908_F2 and nm—006908_R1 in the nested PCR. […]

NCCc1cc(O)c(O)cc1O [6-OHDA, 6-hydroxydopamine]
mRNA levels of rac1 [1]: rac1 levels are not altered | mRNA levels of rac1b [2]: dose dependent accumulation of rac1b

CC(C)(C)OO [TBH, t-butyl hydroperoxide]
mRNA levels of rac1 [1]: rac1 levels are not altered | mRNA levels of rac1b [2]: dose dependent accumulation of rac1b

Abeta: fragment of Abeta42 containing the aminoacids 25 to 35 that reproduces the toxic mechanisms of Aβ42 (GSNKGAIIGLM; Amyloid-beta protein 42; UniProt P05067 696-706, looked up, fragment)
mRNA levels of rac1b [3]: dose dependent accumulation of rac1b mRNA
